Measurements published in patent US20180207294A1, “NON-ALCOHOLIC FATTY LIVER REGULATING FACTOR 14-3-3 PROTEIN” (Korea University Research and Business Foundation, priority 2015, published 2018).

Key:
PPARγ2 S273A mutant = biological target: T1, PPARγ2 S273A mutant (Homo sapiens, UniProt P37231, S273A); test: aP2 promoter luciferase assay with PPARγ2 S273A mutant (HEK-293T); format: cell-based; conditions: FIG. 4C, 4D
T1 construct: expressed in transfected cells; host or cells: HEK-293T
T1 sequence (P37231 1-505 S273A): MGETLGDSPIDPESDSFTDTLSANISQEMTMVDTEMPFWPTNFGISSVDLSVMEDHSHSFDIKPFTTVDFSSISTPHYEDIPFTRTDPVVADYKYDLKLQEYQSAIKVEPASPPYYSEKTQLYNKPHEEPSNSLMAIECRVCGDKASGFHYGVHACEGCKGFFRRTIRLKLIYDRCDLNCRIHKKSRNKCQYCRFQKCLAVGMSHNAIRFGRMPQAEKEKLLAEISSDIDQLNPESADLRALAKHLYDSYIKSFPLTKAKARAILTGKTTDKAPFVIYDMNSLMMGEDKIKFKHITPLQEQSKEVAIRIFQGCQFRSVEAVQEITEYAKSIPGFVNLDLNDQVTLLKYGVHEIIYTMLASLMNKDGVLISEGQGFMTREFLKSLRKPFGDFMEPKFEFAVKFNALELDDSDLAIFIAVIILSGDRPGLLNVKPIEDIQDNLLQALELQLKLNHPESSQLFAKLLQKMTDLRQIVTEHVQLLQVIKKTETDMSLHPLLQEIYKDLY
Description: In addition, HEK-293T cells were seeded in a 12-well plate at a density of 1×10^5 cells per each well, and then transfected with an aP2 promoter construct (0.5 μg), Flag-PPARγ2 (S112A) DNA (0.5 μg) or Flag-PPARγ2 (S273A) DNA (0.5 μg), and mGST-14-3-3β DNA (0.5 μg) or mGST-14-3-3γ DNA (0.5 μg) using an E-fection plus reagent (Lugen). A ratio of DNA to the E-fection plus reagent was 1:2, and this method was performed according to a manufacturer's manual. The corresponding cells were washed with ice-cold PBS, and lysed using 80 μl/well of a reporter lysis buffer (Promega, Madison, Wis.), and the lysed cells were centrifuged at 10,000×g and 4° C. for 10 minutes to collect a supernatant, and luciferase activity was measured. As an instrument, Luminometer 20/20n (Turner Biosystems, Sunnyvale, Calif.) was used. For normalization, the cells were cotransfected with pSV40β-galactosidase. For the collected supernatant, β-galactosidase activity was measured and the luciferase activity was revised, and the obtained values were plotted. At this time, a β-galactosidase enzyme analysis system (Promega, Madison, Wis.) was used, and analysis was performed using a DU530 spectrophotometer (Beckman Instruments, Palo Alto, Calif.).

HepG2 cells = test: PPARγ2 target gene mRNA (PCR) with 14-3-3 overexpression and oleic acid, HepG2 cells; format: cell-based, human; conditions: 14-3-3 overexpression, 200 μM oleic acid 72 hours, FIG. 7A
Description: HepG2 cells were seeded in a 6-well plate at a density of 4×10^5 cells per each well, and then transfected with GFP-14-3-3β DNA (4 μg) or GFP-14-3-3γ DNA (4 μg) using an E-fection plus reagent (Lugen). A ratio of DNA to the E-fection plus reagent was 1:2, and this method was performed according to a manufacturer's manual. After transfection, the cells were treated with 200 μM of oleic acid (OA) for 72 hours, and for mRNA extraction, the corresponding cells were lysed with 1 ml/well of TRIzol (Invitrogen), 200 μl of chloroform was added thereto and mixed well, the resultant cells were maintained at room temperature for 5 minutes and then centrifuged at 12,000×g and 4° C. for 15 minutes, the obtained supernatant was mixed with 500 μl of isopropanol and then put on ice for 10 minutes, and the resulting supernatant was centrifuged at 12,000×g and 4° C. for 15 minutes to remove a supernatant, and then pellets were dissolved with tertiary distilled water treated with diethyl pyrocarbonate (DEPC). 2 μg of mRNA was synthesized into cDNA using a Superscript First Strand cDNA Synthesis Kit (Bioneer, Daejeon, South Korea) and the synthesized cDNA as a template was amplified through polymerase chain reaction (PCR) using primers specific to PPARγ2 (SEQ ID NOS: 1 and 2), 14-3-3β (SEQ ID NOS: 3 and 4), 14-3-3γ (SEQ ID NOS: 5 and 6), SREBP-1c, FAT/CD36, and β-actin of humans, and was amplified through real-time PCR using primers specific to SREBP-1c, FAT/CD36, and GAPDH of mice. β-actin and GAPDH were used as controls to see whether mRNAs of the respective cells were compared in the same amount.

[1] = system: primary mouse hepatocytes; test: Triglyceride colorimetric assay, primary mouse hepatocytes; format: cell-based; conditions: primary mouse hepatocytes; 14-3-3 overexpression; 200 μM oleic acid 72 hours; FIG. 10A
Description: A triglyceride (neutral fat) is a type of fatty acid and is used as an index of a fat content. A biochemical lipid test was carried out by measuring an amount of triglycerides. HepG2 cells and primary mouse hepatocytes were separately seeded in a 6-well plate at a density of 4×10^5 cells per each well, and then transfected with GFP-14-3-3β DNA (1 μg) or GFP-14-3-3γ DNA (1 μg) and si-14-3-3β (10 μM, Santa Cruz) or si-14-3-3γ (10 μM, Santa Cruz) using an E-fection plus reagent (Lugen). A ratio of DNA to the E-fection plus reagent was 1:2, and this method was performed according to a manufacturer's manual. After transfection, the cells were treated with 200 μM of oleic acid (OA) for 72 hours, and the amount of triglycerides was measured using a triglyceride colorimetric assay kit (Cayman Chemical). The corresponding cells were washed with ice-cold PBS and then scraped using a standard diluent assay reagent, the scrapping process was repeated using a sonicator 20 times to lyse the cells, and the lysed cells were reacted with an enzyme buffer solution for 15 minutes, followed by measurement using an ELISA reader (Bio-Rad Laboratories, Inc) at a wavelength of 550 nm.

Substance | change in transcriptional activity of PPARγ2 S273A mutant on 14-3-3 overexpression (PPARγ2 S273A mutant) | mRNA expression of FAT/CD36 (HepG2 cells) | mRNA expression of SREBP-1c (HepG2 cells) | triglyceride accumulation [1]
14-3-3β: 14-3-3 isoform protein, overexpressed by DNA transfection; regulating factor that increases transcriptional activity of PPARγ2 | no change | further increased | further increased | further increased
14-3-3γ: 14-3-3 isoform protein, overexpressed by DNA transfection; regulating factor that decreases transcriptional activity of PPARγ2 | no change | reduced | reduced | reduced triglyceride accumulation
